The record followed here is paper PMC6591177, “Small Molecule IL-36γ Antagonist as a Novel Therapeutic Approach for Plaque Psoriasis” (Scientific Reports, 2019).

Assay [1] has as its system IL-36γ evoked CXCL1 release from Mouse NIH-3T3 cells. The assay is described as follows: IL-36γ evoked CXCL1 release, mouse NIH-3T3 cells. It counts as cell-based. The following applies: for IC50: NIH-3T3 cells, n = 4, read-out: IC50 attenuation of CXCL1 release induced by human IL-36γ. How it is done:
(§1) The immortalized human keratinocyte cell line HaCaT and mouse fibroblast NIH-3T3 cell line were maintained in culture in DMEM with 10% fetal bovine serum and 1% penicillin/streptomycin added (Sigma). Cells were seeded in 96-well tissue culture plates (Corning) at 25,000 cells per well and allowed to adhere and recover overnight at 37 °C in an incubator. Cells were rinsed with PBS (Sigma) and treated with cytokines diluted in 200 μL/well of the medium (DMEM with 0.5% FBS and 1% penicillin/streptomycin) as indicated. In inhibition mode, the agonist concentration used was at the EC80 for chemokine production and the cells were pre-treated with inhibitors for 30 min prior to adding the agonist. After 24 h of treatment, supernatants were collected and IL-8 and CXCL1[28] levels were assessed using a custom immunoassay (Meso Scale Discovery). EC50/IC50 values were estimated from a four-parameter logistic fit using Prism software (GraphPad).

The test system of assay [2] is human IL-36γ induced plasma CXCL1. The assay is described as follows: hIL-36γ induced CXCL1 release in mouse plasma. It counts as in vivo. The note with it: C57BL/6 mice, compounds 10, 30 and 100 mg/kg p.o.; antibody i.p. From the text:
Female C57BL/6 mice (9–10 weeks old, 19–23 g) were purchased from Charles River Laboratories. All animal procedures were approved by AbbVie’s Institutional Animal Care and Use Committee (IACUC) and performed in accordance with the relevant IACUC guidelines and regulations. To examine engagement of human IL-36γ with antagonists under in vivo conditions, a mouse acute CXCL1 release assay was established which was similar to one previously reported. Plasma CXCL1 secretion was induced by subcutaneous injection of 2 μg human IL-36γ (in 100 μL PBS) into C57BL/6 mice. Blood was withdrawn via cardiac puncture 2 h after the challenge with IL-36γ. A-552 and A-553 were dosed at 10, 30 and 100 mg/kg p.o. 45 min before IL-36γ challenge. Anti-IL36R antibodies were dosed i.p. at 24 hours before IL-36γ challenge. Plasma CXCL1 levels were analyzed using MSD V-PLEX kit.

Assay [3] relates to human IL-36γ evoked CXCL1 release from Human HaCaT cells. The experiment in a line: human IL-36γ evoked CXCL1 release, human HaCaT cells. The note with it: ± S.D. It counts as cell-based. How it is done:
as §1

For assay [4], the target named is T1, human IL-36α (Homo sapiens, UniProt Q9UHA7).
T1 construct: using recombinant truncated proteins
T1 sequence (Q9UHA7 6-158): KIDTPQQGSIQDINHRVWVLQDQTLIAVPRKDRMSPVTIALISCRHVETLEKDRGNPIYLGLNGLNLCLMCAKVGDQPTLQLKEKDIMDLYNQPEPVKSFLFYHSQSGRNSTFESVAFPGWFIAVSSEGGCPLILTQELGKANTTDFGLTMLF
The experiment in a line: Thermal shift assay / affinity, human IL-36α. Format: binding. The following applies: thermal shift assay at 100 μM (Supplementary Fig. 4). How it is done:
(§2) Thermal shift assays[30] were performed on a Roche LightCycler 480 instrument using Sypro Orange Dye (Invitrogen). Reactions consisted of 0.5–2 µM purified recombinant protein in PBS, pH 7.4, a 1/500 dilution of the stock Sypro Orange reagent, and 100 µM test compounds, resulting in a final DMSO concentration of 1%. The samples were heated from 20 °C to 95 °C at a rate of 0.25 °C per second.

In assay [5] the target is T2, human IL-36γ (Homo sapiens, UniProt Q9NZH8).
T2 construct: His6-SUMO-human IL-36γ (18–169); His6-SUMO (N, cleaved yes); made in house; host or cells: E. coli BL21 (DE3)
T2 sequence (Q9NZH8 18-169): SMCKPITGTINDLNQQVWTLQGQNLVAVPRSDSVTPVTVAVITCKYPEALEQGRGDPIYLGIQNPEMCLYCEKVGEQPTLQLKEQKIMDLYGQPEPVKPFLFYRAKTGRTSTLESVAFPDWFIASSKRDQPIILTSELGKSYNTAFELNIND
The experiment in a line: Isothermal titration calorimetry. Format: binding. The note with it: 25 °C, pH 7.5; read-out: KD (ITC). On the procedure:
All experiments were carried out on a MicroCal^TM Auto-ITC200 at 25 °C in 50 mM HEPES (pH = 7.5), 150 mM NaCl, 0.5 mM TCEP, 2% DMSO. IL-36γ protein solution was buffer exchanged by gel filtration into the isothermal titration calorimetry (ITC) buffer and diluted to 40 µM. The titrations were conducted using an initial injection of 0.2 µL followed by 19 identical injections of 2 µL of 400 µM compound solution. Thermodynamic parameters were calculated using ∆G = ∆H − T∆S = −RTlnKB, where ∆G, ∆H and ∆S are the changes in free energy, enthalpy and entropy of binding respectively. A single binding site model was employed.
A general note: Isothermal titration calorimetry measures the heat released or taken up as one component is titrated into another.

For assay [6], the target named is T2, human IL-36γ. The experiment in a line: Thermal shift assay, human IL-36γ. Format: binding. The note with it: 100 μM compound; read-out: increase of melting temperature of human IL-36γ. How it is done: as §2
Assay [7] relates to IL-1β evoked IL-8 release from HaCaT cells. The assay is described as follows: IL-1β evoked IL-8 release assay in HaCaT cells. Format: cell-based, human. The following applies: agonist mode, n = 3. How it is done:
as §1
The IL-8 release assays were miniaturized for HTS hit follow-up. Frozen aliquots of HaCaT cells were thawed, added to complete media, mixed, spun down, resuspended in fresh media, and dispensed using the Multidrop384 into black, clear-bottom 384 well plates at a final density of 4000 cells/well. […] Cell viability was assessed using Cell Titer-Glo (Promega) according to the manufacturers’ instructions.

Assay [8] has as its target T3, human IL-36R/IL-1RAcP extracellular domain (ECD) knob-in-hole Fc (human, UniProt Q9HB29 20-335; Q9NPH3 21-367).
T3 construct: human IL-36 receptor subunit (IL-36R), extracellular domain; human IL-1RAcP co-receptor subunit, extracellular domain; Both proteins were engineered with an Fc 'knob-in-hole' to force heterodimerisation; also called hIL-36R/IL-1RAcP ECD knob-in-hole Fc; human IL-36R/IL-1RAcP ECD Fc heterodimer; not shown: His tag (from the nickel column and the Tb-anti-His detection)
T3 sequence (looked up) 1: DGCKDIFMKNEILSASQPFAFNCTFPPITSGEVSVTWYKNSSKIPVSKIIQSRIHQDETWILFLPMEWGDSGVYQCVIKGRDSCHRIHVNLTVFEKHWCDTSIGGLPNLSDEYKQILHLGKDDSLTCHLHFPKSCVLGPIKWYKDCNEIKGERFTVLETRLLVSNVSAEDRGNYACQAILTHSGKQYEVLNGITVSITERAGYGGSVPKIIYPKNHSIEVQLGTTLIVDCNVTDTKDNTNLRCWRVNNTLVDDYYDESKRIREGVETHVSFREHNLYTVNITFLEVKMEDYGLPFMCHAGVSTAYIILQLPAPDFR
T3 sequence (looked up) 2: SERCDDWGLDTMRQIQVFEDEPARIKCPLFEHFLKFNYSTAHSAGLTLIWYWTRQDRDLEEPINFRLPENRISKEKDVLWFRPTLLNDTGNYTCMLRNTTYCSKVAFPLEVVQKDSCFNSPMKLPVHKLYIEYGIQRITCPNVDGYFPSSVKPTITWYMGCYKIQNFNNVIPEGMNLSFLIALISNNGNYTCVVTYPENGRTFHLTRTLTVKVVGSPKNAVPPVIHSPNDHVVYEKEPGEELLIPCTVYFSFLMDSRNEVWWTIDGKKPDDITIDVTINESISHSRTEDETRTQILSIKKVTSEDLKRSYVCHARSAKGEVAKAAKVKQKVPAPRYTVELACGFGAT
The experiment in a line: AlphaScreen or HTRF; TR-FRET, competitive mode: unlabeled human IL-36γ or IL-36Ra titrated against 6 nM Alexa 488 human IL-36γ, receptor heterodimer 1.5 μg/mL, 6 nM Tb-anti-His antibody; Ki by the Cheng-Prusoff equation. The following applies: both partners purified.

Assay [9] deals with 3D human skin equivalents. The experiment in a line: IL-36γ induced 3D skin equivalent model. Format: cell-based. The following applies: 0.3 μg/mL hIL-36γ; 10 μM A-552, 10 μg/mL antibody or IL-36Ra; three days. On the procedure:
Hematoxylin & eosin (H&E) staining and immunohistochemistry (IHC) were performed using a Leica ST5010 autostainer or Leica Bond RX automated immunostainer. Standardized IHC protocols were used for anti-loricrin staining (Abcam AB85679). Stained tissue slides were digitized for image analysis using a Perkin Elmer P250 whole slide digital pathology slide scanner with 20X objective and extended focus scanning parameters. For quantitative analysis, N = 3 raft samples were analyzed per condition for each stain using whole slide digital analysis software (Indica Labs HALO). Staining was normalized to the length of the raft sample analyzed.
3D skin equivalents (SOR-300-FT-CTR) comprised of human neonatal keratinocytes and fibroblasts were purchased from MatTek, equilibrated for one day in proprietary formulated media (SOR-300-FT-CTR-MM) and then treated as indicated. Treatment groups contained hIL-36γ at 300 ng/mL, 10 μM of A-552, 10 μg/mL anti-IL36R antibody, 10 μg/mL IL-36RA, or 10 μg/mL IgG isotype control either alone or in combination with hIL-36γ. Control skin equivalents were treated with media only. Skin equivalents were treated for three days, with media collected for cytokine release studies at day two and replaced with fresh treatment media. After three days the skin equivalents were either placed in 10% neutral buffered formalin solution (for histology) or frozen (for qRT-PCR).
To measure IL-6, IL-8 and CXCL1 release from 3D skin equivalents diluted sample media collected at day 2 of the treatment (see above) was used in conjunction with V-PLEX multiplex immunoassay for IL-6 and IL-8 and a U-PLEX immunoassay for CXCL1 (Meso Scale Discovery) according to the manufacturers’ protocols.
RNA from frozen 3D skin equivalents was isolated using miRNeasy Mini Kit (Qiagen) per the manufacturers’ instructions. For qRT-PCR determination a CFX384 Real-Time System C1000 Touch Thermocycler was used. […] Each transcript measured was presented as a fold change compared to control using the ∆∆CT method as RNA fold increase where RPLP0 was used as a housekeeping gene.

Entries after “also recorded” stand apart in the source; their conditions may differ.

On to `COC(c1ccccc1)(c1ccccc1)[C@@H](Oc1nc(C)cc(-c2ccc(C)c(N)c2)n1)C(=O)O` [Compound A-553], for which the Ki (as a rule, a measure of affinity in units of concentration, obtained from inhibition or displacement) was found to be 3700 ± 1700 nM in [1] (human IL-36γ evoked CXCL1 release, ± S.D.) and 3700 ± 2300 nM in [3]. The “effect on hIL-36γ induced plasma CXCL1 release (in words)” value in assay [2] was “little effect; also recorded: no effect”. Further, in assay [4], the “binding / affinity to human IL-36α” value is given as “do not bind”. Besides, in [5], the Kd (commonly the free concentration of one partner at which half of the binding sites on the other are occupied at equilibrium, for simple one-to-one binding) stood at 3000 ± 330 nM. For the same molecule, in [6], the ΔTm at 100 µM worked out at 1.3 °C.
For “IL-1β: human IL-1β cytokine used in the selectivity assay”, in assay [7], a half-maximal effect (EC50) was put at 0.0057 ± 0.0038 nM.

B1: human IL-36γ (18–169) (ligand, UniProt Q9NZH8 18-169, looked up)
chain: T2 sequence (Q9NZH8 18-169)
notes: human IL-36γ, residues 18-169; also called hIL-36γ; unlabeled IL-36γ; source: E. coli BL21 (DE3), purified (nickel column, ULP1 cleavage, Superdex 75 gel filtration); not shown: His6, N-terminal, cleaved; SUMO, N-terminal, cleaved
In turn, B1 returned a Ki in assay [8] of 0.4 nM.

B2: mouse IL-36Ra: mouse IL-36 receptor antagonist protein (protein, UniProt Q9QYY1 2-156, looked up)
Interleukin-36 receptor …: MVLSGALCFRMKDSALKVLYLHNNQLLAGGLHAEKVIKGEEISVVPNRALDASLSPVILGVQGGSQCLSCGTEKGPILKLEPVNIMELYLGAKESKSFTFYRRDMGLTSSFESAAYPGWFLCTSPEADQPVRLTQIPEDPAWDAPITDFYFQQCD
Turning to B2, the IC50 (commonly the concentration at which inhibition is half-maximal) in [1] was 19 ± 9 nM.

B3: human IL-36Ra: recombinant soluble human IL-36 receptor antagonist (2–155) (protein)
chain: VLSGALCFRMKDSALKVLYLHNNQLLAGGLHAGKVIKGEEISVVPNRWLDASLSPVILGVQGGSQCLSCGVGQEPTLTLEPVNIMELYLGAKESKSFTFYRRDMGLTSSFESAAYPGWFLCTVPEADQPVRLTQLPENGGWNAPITDFYFQQCD
modifications: left off: His6, N-terminal, cleaved | SUMO, N-terminal, cleaved
Consider B3, for which the IC50 in assay [1] is 23 ± 10 nM. For the same molecule, the “effect on hIL-36γ induced changes in morphology, gene expression and cytokine production” value in assay [9] is “fully attenuated”.
